We go through 30 molecules from patent US11685734B2, “ATM kinase inhibitors and compositions and methods of use thereof” (CHDI Foundation, Inc., priority 2019, dated 2023).

The target of experiment [1] is Recombinant, full length human FLAG-tagged ATM (Homo sapiens (Human), UniProt Q13315). Briefly: ATM ELISA for p53 S15 phosphorylation. The format is biochemical. Conditions: 0.75 nM ATM, 25 nM p53, 10 μM ATP, 30 min at 20° C.; read-out: ATM BIO IC50. How it is done:
ATM: Recombinant, full length human FLAG-tagged ATM activity (Eurofins 14-933) was measured in an ELISA for p53 S15 phosphorylation, in a 384 well V-bottom polypropylene plate (Greiner Bio One 781280). Reactions contained 0.75 nM ATM, 25 nM full length myc tagged p53 (Eurofins 23-034), 10 μM UltraPure ATP (Promega V915B) and serial dilutions of inhibitors (0.1% DMSO final) in 25 mM HEPES, pH 7.5. 5 mM MgCl2, 2.5 mM MnCl2, 0.006% Brij-35, 0.5% glycerol, 0.1 mg/ml BSA, 0.5 mM DTT and were allowed to proceed for 30 min at 20° C. 70 mM EDTA final terminated the kinase reactions. An aliquot of the terminated reaction (25 μl) was transferred to a 384-well, high binding microplate (Greiner Bio One 781061), precoated with anti-myc capture antibody overnight (Millipore 05-724) diluted in 1:1000 in PBS, then blocked with Odyssey blocking buffer (LI-COR Biosciences 92740000) for 60 min at 20° C. The terminated reaction was allowed to capture for 2 h at 20° C. Phosphorylation was measured using an antibody specific to p53 S15 phosphorylation (1:5000 Abcam ab38497), anti-rabbit HRP (1:1000 Cell Signalling Technology, 7074) and TMB (ab171522). Antibodies were diluted in Odyssey blocking buffer and incubated for 60 min at 20° C. Three washes with PBS containing 0.05% (v/v) Tween 20 (PBS-T) were performed between each incubation. The TMB reaction was stopped with an equal volume of 0.2 M sulfuric acid and absorbance read at 450 nm on the Perkin Elmer Envision within 30 min of terminating the reaction. […] IC50 values represent the mean from at least two independent experiments.

Experiment [2] has as its target cellular ATM activity (Homo sapiens (Human), UniProt Q13315). Nature of the experiment: Inhibition of cellular ATM activity: etoposide-stimulated KAP1 phosphorylation in U20S cells. It is filed as cell-based. Conditions: 100 μM etoposide, 60 min, read-out: ATM CELL IC50. How it is done:
Inhibition of cellular ATM activity was determined by changes in etoposide-stimulated KAP1 phosphorylation, based on the work of Guo et al. 2014.
Cryopreserved U20S cells were plated overnight at 6 k cells/well in black walled, clear bottomed 384 well plates (Greiner Bio One 781090). After overnight incubation (37 C, 5% CO2), cells were incubated with titrations of test compounds (0.3% DMSO final) in the presence of 100 μM etoposide (Sigma E1383) to stimulate ATM via induction of double stranded DNA breaks. After 60 min, cells were fixed using 100% cold methanol and incubated at −20° C. for 10 min. Fixed cells were washed with PBS containing 0.05% (v/v) Tween 20 (PBS-T) prior to a 60 minute blocking step in Odyssey blocking buffer (LI-COR Biosciences 92740000). Primary antibodies (1:1000 phosphorylated KAP1: Cell Signalling Technology 4127, 1:5000 total KAP1: Cell Signaling Technology 5868) were diluted in Odyssey blocking buffer and incubated overnight at 4° C., before addition of IRDye(R) conjugated secondary antibodies (LI-COR Biociences 926-32211, LI-COR Biosciences 926-68070) diluted 1:2000 in Odyssey blocking buffer for 60 min at room temperature and detection by LI-COR Odyssey (ImageStudio version 2.1.10, focus offset 4 mm, resolution 169 μm, lowest quality, intensities of 1 and 3 for 700 and 800 channels respectively). Immunoreactivity was quantified and the ratio of phosphorylated KAP1 calculated by dividing by the total KAP1 immunoreactivity. The percentage of inhibition was calculated for each concentration of compound using 100% (100 μM etoposide+30 μM KU-60019) and 0% effect controls (100 μM etoposide+DMSO). IC50 values represent the mean from at least two independent experiments.

Each structure is given as a SMILES string.

Recombinant, full length human FLAG-tagged ATM, sequence (Q13315 whole entry): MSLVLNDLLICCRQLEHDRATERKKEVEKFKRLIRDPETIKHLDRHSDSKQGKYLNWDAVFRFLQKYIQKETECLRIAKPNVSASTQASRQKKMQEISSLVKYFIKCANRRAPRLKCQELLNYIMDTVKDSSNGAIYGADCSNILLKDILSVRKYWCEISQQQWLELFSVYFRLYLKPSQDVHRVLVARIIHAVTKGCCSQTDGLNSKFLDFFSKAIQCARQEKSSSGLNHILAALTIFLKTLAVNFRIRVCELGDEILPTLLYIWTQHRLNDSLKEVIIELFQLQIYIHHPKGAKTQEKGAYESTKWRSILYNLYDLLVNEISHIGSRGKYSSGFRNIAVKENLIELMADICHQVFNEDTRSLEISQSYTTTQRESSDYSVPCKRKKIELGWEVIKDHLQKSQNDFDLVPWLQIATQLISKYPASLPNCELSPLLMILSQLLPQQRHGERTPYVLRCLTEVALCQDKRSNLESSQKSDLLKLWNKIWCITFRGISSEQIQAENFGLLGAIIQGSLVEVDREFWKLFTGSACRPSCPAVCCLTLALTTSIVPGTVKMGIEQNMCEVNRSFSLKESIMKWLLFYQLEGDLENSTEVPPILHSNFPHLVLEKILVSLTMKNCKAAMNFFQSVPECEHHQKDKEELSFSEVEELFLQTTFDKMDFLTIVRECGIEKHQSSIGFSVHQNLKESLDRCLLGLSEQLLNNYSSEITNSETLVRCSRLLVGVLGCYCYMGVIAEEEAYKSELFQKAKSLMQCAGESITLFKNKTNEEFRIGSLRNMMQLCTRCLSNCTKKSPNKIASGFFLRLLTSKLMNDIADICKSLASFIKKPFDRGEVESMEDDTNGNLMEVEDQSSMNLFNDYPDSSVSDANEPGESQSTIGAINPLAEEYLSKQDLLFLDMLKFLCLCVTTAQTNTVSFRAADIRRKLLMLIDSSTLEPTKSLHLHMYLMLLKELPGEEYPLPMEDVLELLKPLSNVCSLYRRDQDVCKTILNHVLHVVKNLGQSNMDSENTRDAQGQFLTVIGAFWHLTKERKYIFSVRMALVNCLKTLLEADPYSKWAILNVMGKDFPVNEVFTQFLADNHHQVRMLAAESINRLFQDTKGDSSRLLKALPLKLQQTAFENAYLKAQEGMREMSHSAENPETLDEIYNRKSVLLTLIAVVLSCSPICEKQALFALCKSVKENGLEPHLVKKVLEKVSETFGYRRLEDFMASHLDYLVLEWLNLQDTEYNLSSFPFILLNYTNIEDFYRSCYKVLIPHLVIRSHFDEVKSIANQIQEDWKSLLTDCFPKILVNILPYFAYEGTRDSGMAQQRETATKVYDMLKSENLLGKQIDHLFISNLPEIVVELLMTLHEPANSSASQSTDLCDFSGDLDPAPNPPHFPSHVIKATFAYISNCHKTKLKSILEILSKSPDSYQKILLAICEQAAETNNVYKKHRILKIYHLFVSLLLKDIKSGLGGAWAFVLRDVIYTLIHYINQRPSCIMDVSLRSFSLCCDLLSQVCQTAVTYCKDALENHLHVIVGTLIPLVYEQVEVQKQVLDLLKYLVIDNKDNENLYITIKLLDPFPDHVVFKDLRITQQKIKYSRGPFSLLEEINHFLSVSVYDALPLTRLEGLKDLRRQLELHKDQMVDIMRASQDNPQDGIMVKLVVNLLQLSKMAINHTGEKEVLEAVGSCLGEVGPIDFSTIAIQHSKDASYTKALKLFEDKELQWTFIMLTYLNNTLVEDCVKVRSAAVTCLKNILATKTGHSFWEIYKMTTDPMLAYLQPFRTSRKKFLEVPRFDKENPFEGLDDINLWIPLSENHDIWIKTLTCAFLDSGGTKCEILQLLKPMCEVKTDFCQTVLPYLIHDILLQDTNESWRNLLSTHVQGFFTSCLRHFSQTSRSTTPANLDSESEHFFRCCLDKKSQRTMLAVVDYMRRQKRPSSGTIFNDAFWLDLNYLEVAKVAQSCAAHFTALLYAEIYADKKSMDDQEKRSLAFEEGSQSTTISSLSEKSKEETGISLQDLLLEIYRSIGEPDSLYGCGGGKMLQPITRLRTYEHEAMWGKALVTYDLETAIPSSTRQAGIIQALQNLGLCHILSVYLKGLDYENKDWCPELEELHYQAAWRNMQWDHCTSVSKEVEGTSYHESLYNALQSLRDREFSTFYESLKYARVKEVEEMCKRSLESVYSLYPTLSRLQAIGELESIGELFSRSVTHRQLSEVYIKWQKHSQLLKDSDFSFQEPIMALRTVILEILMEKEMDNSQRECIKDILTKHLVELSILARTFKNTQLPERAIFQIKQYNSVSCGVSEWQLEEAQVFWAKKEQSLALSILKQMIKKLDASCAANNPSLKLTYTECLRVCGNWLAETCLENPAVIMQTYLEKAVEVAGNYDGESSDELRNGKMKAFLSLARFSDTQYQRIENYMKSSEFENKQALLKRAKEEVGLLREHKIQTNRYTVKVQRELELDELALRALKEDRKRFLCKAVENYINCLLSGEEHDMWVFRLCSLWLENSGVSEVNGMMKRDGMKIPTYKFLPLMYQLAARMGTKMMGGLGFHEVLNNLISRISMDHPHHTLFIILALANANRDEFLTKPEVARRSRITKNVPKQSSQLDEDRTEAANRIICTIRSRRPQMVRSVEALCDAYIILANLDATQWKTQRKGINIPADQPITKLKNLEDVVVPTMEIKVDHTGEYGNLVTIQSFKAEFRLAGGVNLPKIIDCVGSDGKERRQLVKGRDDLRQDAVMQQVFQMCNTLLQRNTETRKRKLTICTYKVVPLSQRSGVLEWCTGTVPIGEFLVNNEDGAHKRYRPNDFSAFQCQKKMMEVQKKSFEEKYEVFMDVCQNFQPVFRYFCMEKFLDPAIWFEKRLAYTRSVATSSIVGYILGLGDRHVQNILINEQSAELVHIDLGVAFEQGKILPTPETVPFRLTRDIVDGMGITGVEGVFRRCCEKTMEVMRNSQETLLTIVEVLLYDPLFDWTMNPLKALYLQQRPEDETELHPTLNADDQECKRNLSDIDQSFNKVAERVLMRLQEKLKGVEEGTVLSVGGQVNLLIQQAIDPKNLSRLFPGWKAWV
cellular ATM activity, sequence (Q13315 whole entry): as above

A word on the IC50: it is the concentration that gives 50% inhibition. Turning to `C[C@@H]1CN(c2cc(=O)[nH]c(N3CCC[C@@H]3Cc3ccccc3)n2)C[C@@H](C)O1` [Example 347, 2-((R)-2-benzylpyrrolidin-1-yl)-6-((2R,6R)-2,6-dimethylmorpholino)pyrimidin-4(3H)-one], the IC50 was 23.7 nM in experiment [1] and 528 nM in experiment [2].
Turning to `C[C@@H]1CN(c2cc(=O)[nH]c(N3CCCCC[C@@H]3Cc3cccs3)n2)CCO1` [Example 286, 6-((R)-2-methylmorpholino)-2-((R)-2-(thiophen-2-ylmethyl)azepan-1-yl)pyrimidin-4(3H)-one], the IC50 in experiment [1] was 24.6 nM; in experiment [2], 1020 nM.
Regarding `C[C@@H]1CN(c2cc(=O)[nH]c(N3CCC(F)(F)[C@@H]3Cc3ccccc3)n2)CCO1` [Example 322, 2-((S)-2-benzyl-3,3-difluoropyrrolidin-1-yl)-6-((R)-2-methylmorpholino)pyrimidin-4(3H)-one], the concentration for half-maximal inhibition (IC50) in experiment [1] is 33.2 nM; in experiment [2], 2840 nM.
For `C[C@H]1CCCN(c2nc(N3CCO[C@H](C)C3)cc(=O)[nH]2)[C@@H](Cc2ccc(F)cc2)C1` [Example 313, 2-((2R,4S)-2-(4-fluorobenzyl)-4-methylazepan-1-yl)-6-((R)-2-methylmorpholino)pyrimidin-4(3H)-one] the same measures were 42.3 nM and 1660 nM.
For `Cc1ccc(C[C@H]2CCCN2c2cc(N3CCOCC3)cc(=O)[nH]2)cc1` [Example 20, (R)-6-(2-(4-methylbenzyl)pyrrolidin-1-yl)-4-morpholinopyridin-2(1H)-one], the IC50 is 54.1 nM in experiment [1] and 2930 nM in experiment [2].
Turning to `COc1cccc(C[C@H]2CCCCCN2c2nc(N3CCOCC3)cc(=O)[nH]2)c1` [Example 203], the IC50 in experiment [1] came to 1.9 nM; in experiment [2], 427 nM.
For `O=c1cc(N2CCOCC2)nc(N2C[C@H]3C[C@H]3[C@@H]2Cc2ccc(F)cc2)[nH]1` [Example 209] the same measures were 8.9 nM and 377 nM.
For `COc1ccccc1C[C@H]1C[C@@H](C)CCCN1c1nc(N2CCOCC2)cc(=O)[nH]1` [Example 237] the same measures were 35.6 nM and 592 nM.
For `Cc1cc(C[C@H]2CCCN2c2nc(N3CCOCC3)cc(=O)[nH]2)cc(C)n1` [Example 188] the same measures were 28.7 nM and 1060 nM.
Take `O=c1cc(N2CCOCC2)cc(N2CCCCC[C@@H]2Cc2cccc3c2OCO3)[nH]1` [Example 70, (R)-6-(2-(benzo[d][1,3]dioxol-4-ylmethyl)azepan-1-yl)-4-morpholinopyridin-2(1H)-one]: the IC50 in experiment [1] was determined as 2.4 nM; in experiment [2], 274 nM.
On to `O=c1cc(N2CCOCC2)cc(N2CCC[C@@H]2Cc2ccccc2)[nH]1` [Example 1, (R)-6-(2-benzylpyrrolidin-1-yl)-4-morpholinopyridin-2(1H)-one], for which the IC50 was 36.2 nM in experiment [1] and 3380 nM in experiment [2].
As to `COc1c(F)cccc1C[C@H]1CCCCCN1c1nc(N2CCOCC2)cc(=O)[nH]1` [Example 231], the figures for the IC50 in experiment [1] and in experiment [2] were 84 nM and 1090 nM, respectively.
The corresponding values for `CO[C@@H]1CCN(c2cc(N3CCOCC3)cc(=O)[nH]2)[C@H]1Cc1ccccc1` [Example 88, 6-((2S,3R)-2-benzyl-3-methoxypyrrolidin-1-yl)-4-morpholinopyridin-2(1H)-one] are 53 nM and 1660 nM.
`COc1ccccc1C[C@H]1[C@H](C)CCN1c1cc(N2CCOCC2)cc(=O)[nH]1` [Example 47, 6-((2S,3R)-2-(2-methoxybenzyl)-3-methylpyrrolidin-1-yl)-4-morpholinopyridin-2(1H)-one]: the IC50 in experiment [1] amounted to 8.3 nM; in experiment [2], 347 nM.
The corresponding values for `CC1CCC[C@H](Cc2ccccc2)N(c2nc(N3CCOCC3)cc(=O)[nH]2)C1` (single isomer, unassigned) [Example 246] are 22.5 nM and 1070 nM.
As to `O=c1cc(N2CCOCC2)nc(N2CCCC[C@@H]2Cc2ccccc2)[nH]1` [Example 199], the IC50 in experiment [1] worked out at 2.8 nM; in experiment [2] it was 125 nM.
For `O=c1cc(N2CCOCC2)cc(N2C[C@H]3C[C@H]3[C@@H]2Cc2ccccc2)[nH]1` [Example 43, 6-((1R,2S,5S)-2-benzyl-3-azabicyclo[3.1.0]hexan-3-yl)-4-morpholinopyridin-2(1H)-one] the same measures were 9.6 nM and 293 nM.
The corresponding values for `CC1COCCN1c1cc(=O)[nH]c(N2CCCC2Cc2ccccc2)n1` (single isomer, unassigned) [Example 339, 2-(2-benzylpyrrolidin-1-yl)-6-(3-methylmorpholino)pyrimidin-4(3H)-one] are 34.5 nM and 1560 nM.
For the molecule `O=c1cc(N2CCOCC2)nc(N2C[C@@H]3C[C@@H]3[C@@H]2Cc2ccc(F)cc2)[nH]1` [Example 207], the half-maximal inhibitory concentration (IC50) in experiment [1] is 4.4 nM; in experiment [2], 207 nM.
On to `COCCOc1cccc(C[C@H]2CCCCCN2c2nc(N3CCO[C@H](C)C3)cc(=O)[nH]2)c1` [Example 308, 2-((R)-2-(3-(2-methoxyethoxy)benzyl)azepan-1-yl)-6-((R)-2-methylmorpholino)pyrimidin-4(3H)-one], for which the IC50 in experiment [1] worked out at 14.3 nM; in experiment [2] it was 560 nM.
For `O=c1cc(N2CCOCC2)nc(N2CC[C@@H](F)[C@@H]2Cc2ccccc2)[nH]1` [Example 259, 2-((2S,3R)-2-benzyl-3-fluoropyrrolidin-1-yl)-6-morpholinopyrimidin-4(3H)-one] the same measures were 1.7 nM and 196 nM.
As to `CC1CCC[C@H](Cc2ccccc2)N(c2nc(N3CCOCC3)cc(=O)[nH]2)C1` (single isomer, unassigned) [Example 247], the half-inhibitory concentration (IC50) is 1.5 nM in experiment [1] and 194 nM in experiment [2].
The corresponding values for `CC1C[C@H](Cc2ccccc2)N(c2nc(N3CCO[C@H](C)C3)cc(=O)[nH]2)C1` (single isomer, unassigned) [Example 320] are 90.9 nM and 1680 nM.
Regarding `O=c1cc(N2CCOCC2)nc(N2CCCCC[C@@H]2Cc2ccccc2Cl)[nH]1` [Example 205], the IC50 in experiment [1] was 39.6 nM; in experiment [2] it was 797 nM.
With `C[C@@H](c1ccccc1)[C@@H]1CCCN1c1nc(N2CCOCC2)cc(=O)[nH]1` [Example 250, 6-morpholino-2-((S)-2-((S)-1-phenylethyl)pyrrolidin-1-yl)pyrimidin-4(3H)-one], the half-maximal inhibitory concentration (IC50) was found to be 5 nM in experiment [1] and 153 nM in experiment [2].
For `O=c1cc(N2CCOCC2)nc(N2CCCCC[C@@H]2Cc2ccsc2)[nH]1` [Example 248] the same measures were 3.9 nM and 421 nM.
For `Cn1c(N2CCC[C@@H]2Cc2ccccc2)cc(N2CCOCC2)cc1=O` [Example 173, (R)-6-(2-benzylpyrrolidin-1-yl)-1-methyl-4-morpholinopyridin-2(1H)-one] the same measures were 37.8 nM and 1900 nM.
For `COc1ccccc1C[C@H]1[C@@H]2C[C@@H]2CN1c1cc(N2CCOCC2)cc(=O)[nH]1` [Example 126] the same measures were 6.9 nM and 388 nM.
Consider `COc1ccc(C[C@H]2CCCN2c2cc(N3CCOCC3)cc(=O)[nH]2)cc1` [Example 13, (R)-6-(2-(4-methoxybenzyl)pyrrolidin-1-yl)-4-morpholino pyridin-2(1H)-one], for which the IC50 in experiment [1] was determined as 70.5 nM; in experiment [2], 4490 nM.
For `C[C@H]1CCCN(c2nc(N3CCOCC3)cc(=O)[nH]2)[C@@H](Cc2ccc(F)cc2)C1` [Example 235] the same measures were 5.3 nM and 436 nM.
